Measurements reported in patent US20260317356A1, “SMALL MOLECULE MODULATORS OF OGG1” (AZKARRA THERAPEUTICS, INC., priority 2023, published 2026).

What follows are compounds tested against hOGG1 (Homo sapiens, UniProt O15527) (assay: Biochemical fluorescence assay to measure enzymatic activity of hOGG1 (OGG1/APEX IC50)). Conditions: 1 nM OGG1+2 nM APEX+6 nM dsDNA (8-oxo-dG substrate); pH 7.5; RT 40 min; read-out: OGG1/APEX IC50.
Design: Protein His-hOGG1 (12-323) was prepared; His (N); host or cells: E. coli
Outline: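 Coupled glycosylase/AP-endonuclease read-out: 8-oxo-dG-containing dsDNA (6 nM) cleaved by 1 nM His-hOGG1 (12-323) plus 2 nM APEX1 over 40 min at room temperature, after 20 min enzyme–compound preincubation; buffer 20 mM Tris pH 7.5, 100 mM KCl, 0.1% BSA, 0.01% Tween. IC50 comes from sigmoidal 3-parameter fitting of % inhibition derived from TAMRA signal.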

hOGG1, sequence (O15527 12-323): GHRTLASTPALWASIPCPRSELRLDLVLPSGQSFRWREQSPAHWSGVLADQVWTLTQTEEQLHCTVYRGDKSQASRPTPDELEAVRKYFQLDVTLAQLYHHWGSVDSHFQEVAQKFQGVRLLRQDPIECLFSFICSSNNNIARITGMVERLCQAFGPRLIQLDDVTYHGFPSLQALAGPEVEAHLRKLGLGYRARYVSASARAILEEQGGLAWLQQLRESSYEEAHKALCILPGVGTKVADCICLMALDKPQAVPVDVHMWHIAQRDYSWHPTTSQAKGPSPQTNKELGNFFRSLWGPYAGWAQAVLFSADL

SMILES | IC50 [nM]
COc1cc(NC(=O)[C@H]2CC[C@@H](N3Cc4c(ccc(Br)c4C)NC3=O)CC2)ccc1C [Example 63, (1s,4s)-4-(6-bromo-5-methyl-2-oxo-1,2-dihydroquinazolin-3(4H)-yl)-N-(3-methoxy-4-methylphenyl)cyclohexanecarboxamide] | 1000 to 10000
COc1cc(NC(=O)[C@H]2CC[C@@H](N3Cc4c(C)ccc(C5CC5)c4NC3=O)CC2)ccc1C [Example 39, (1s,4s)-4-(8-Cyclopropyl-5-methyl-2-oxo-1,2-dihydroquinazolin-3(4H)-yl)-N-(3-methoxy-4-methylphenyl)cyclohexanecarboxamide] | < 100
Cc1cc(NC(=O)[C@H]2CC[C@@H](N3Cc4c(C)cccc4C3=O)CC2)ccc1Cl [Example 225, (1s,4s)-N-(4-Chloro-3-methylphenyl)-4-(4-methyl-1-oxoisoindolin-2-yl)cyclohexanecarboxamide] | 100 to 1000
COc1cc(NC(=O)[C@H]2CC[C@@H](N3Cc4c(C)cc(OCCN5CCC5)cc4C3=O)CC2)ccc1C [Example 261, (1s,4s)-4-(6-(2-(Azetidin-1-yl)ethoxy)-4-methyl-1-oxoisoindolin-2-yl)-N-(3-methoxy-4-methylphenyl)cyclohexanecarboxamide] | < 100
COc1cc(NC(=O)[C@@H]2[C@@H]3C[C@@H](N4Cc5c(Br)cccc5C4=O)C[C@@H]32)ccc1C (single isomer, unassigned) [Example 269] | 1000 to 10000
COc1cc(NC(=O)[C@H]2CC[C@@H](N3Cc4c(Cl)cccc4N(C)C3=O)CC2)ccc1C [Example 73, (1s,4s)-4-(5-chloro-1-methyl-2-oxo-1,2-dihydroquinazolin-3(4H)-yl)-N-(3-methoxy-4-methylphenyl)cyclohexanecarboxamide] | 100 to 1000
COc1cc(NC(=O)C2C[C@@H]3[C@H](C2)[C@H]3N2Cc3c(Br)cccc3C2=O)ccc1C (single isomer, unassigned) [Example 247] | > 10000
COc1cc(NC(=O)[C@H]2CC[C@@H](N3Cc4c(C)ccc(Cl)c4C3=O)CC2)ccc1C [Example 144, (1s,4s)-4-(7-Chloro-4-methyl-1-oxoisoindolin-2-yl)-N-(3-methoxy-4-methylphenyl)cyclohexanecarboxamide] | < 100
COCc1ccc2c(c1C)CN([C@H]1CC[C@@H](C(=O)Nc3ccc(C)c(OC)c3)CC1)C(=O)N2 [Example 48, (1s,4s)-N-(3-Methoxy-4-methylphenyl)-4-(6-(methoxymethyl)-5-methyl-2-oxo-1,2-dihydroquinazolin-3(4H)-yl)cyclohexanecarboxamide] | 1000 to 10000
CCOC(=O)c1cccc2c1CN([C@H]1CC[C@@H](C(=O)Nc3ccc(C)c(OC)c3)CC1)C2=O [Example 169, Ethyl 2-((1s,4s)-4-(3-methoxy-4-methylphenylcarbamoyl)cyclohexyl)-1-oxoisoindoline-4-carboxylate] | > 10000
COc1cc(NC(=O)[C@H]2CC[C@@H](N3Cc4c(Br)cc(NC(=O)CN(C)C)cc4C3=O)CC2)ccc1C [Example 202, (1s,4s)-4-(4-bromo-6-(2-(dimethylamino)acetamido)-1-oxoisoindolin-2-yl)-N-(3-methoxy-4-methylphenyl)cyclohexanecarboxamide] | 100 to 1000
COc1cc(NC(=O)[C@H]2CC[C@@H](N3Cc4c(C)cccc4OC3=O)CC2)ccc1C [Example 115, (1s,4s)-N-(3-methoxy-4-methylphenyl)-4-(5-methyl-2-oxo-2H-benzo[e][1,3]oxazin-3(4H)-yl)cyclohexane-1-carboxamide] | 100 to 1000
O=C1c2cccc(Br)c2CN1[C@H]1CC[C@@H](C(=O)Nc2ccc3c(c2)OCO3)CC1 [Example 185, (1s,4s)-N-(Benzo[d][1,3]dioxol-5-yl)-4-(4-bromo-1-oxoisoindolin-2-yl)cyclohexanecarboxamide] | 1000 to 10000
Cc1cccc2c1CN([C@H]1CC[C@@H](C(=O)Nc3ccc4cc[nH]c4c3)CC1)C2=O [Example 276, (1s,4s)-N-(1H-indol-6-yl)-4-(4-methyl-1-oxoisoindolin-2-yl)cyclohexanecarboxamide] | 1000 to 10000
COc1cc(NC(=O)[C@H]2CC[C@@H](N3Cc4c(C=O)cccc4C3=O)CC2)ccc1C [Example 162, (1s,4s)-4-(4-Formyl-1-oxoisoindolin-2-yl)-N-(3-methoxy-4-methylphenyl)cyclohexanecarboxamide] | 1000 to 10000
COc1cc(NC(=O)[C@H]2CC[C@@H](N3Cc4c(C)cc(N5CC(OC)C5)cc4NC3=O)CC2)ccc1C [Example 29, (1s,4s)-N-(3-Methoxy-4-methylphenyl)-4-(7-(3-methoxyazetidin-1-yl)-5-methyl-2-oxo-1,2-dihydroquinazolin-3(4H)-yl)cyclohexanecarboxamide] | < 100
COc1cc(NC(=O)[C@H]2CC[C@@H](N3Cc4c(OC)cccc4C3=O)CC2)ccc1C [Example 161, (1s,4s)-4-(4-Methoxy-1-oxoisoindolin-2-yl)-N-(3-methoxy-4-methylphenyl)cyclohexanecarboxamide] | 1000 to 10000

SMILES | IC50 [nM]
COc1cc(NC(=O)[C@H]2CC[C@@H](N3Cc4c(C)cccc4C3=O)CC2)ccc1Br [Example 120, (1s,4s)-N-(4-Bromo-3-methoxyphenyl)-4-(4-methyl-1-oxoisoindolin-2-yl)cyclohexane-1-carboxamide] | 100 to 1000
COc1cc(NC(=O)[C@H]2CC[C@@H](N3Cc4c(C)ccc(CN(C)C)c4NC3=O)CC2)ccc1C [Example 52, (1s,4s)-4-(8-((Dimethylamino)methyl)-5-methyl-2-oxo-1,2-dihydroquinazolin-3(4H)-yl)-N-(3-methoxy-4-methylphenyl)cyclohexanecarboxamide] | < 100
COc1cc(NC(=O)N2CCC(N3Cc4c(Br)cccc4C3=O)CC2)ccc1C [Example 181, 4-(4-Bromo-1-oxoisoindolin-2-yl)-N-(3-methoxy-4-methylphenyl)piperidine-1-carboxamide] | 1000 to 10000
COc1cc(NC(=O)[C@H]2CC[C@@H](N3Cc4c(Br)cc(NCCCN(C)C)cc4C3=O)CC2)ccc1C [Example 205, (1s,4s)-4-(4-Bromo-6-(3-(dimethylamino)propylamino)-1-oxoisoindolin-2-yl)-N-(3-methoxy-4-methylphenyl)cyclohexanecarboxamide] | < 100
COc1ccc(NC(=O)[C@]2(C)CC[C@H](N3Cc4c(C)cccc4NC3=O)CC2)cc1C (single isomer, unassigned) [Example 105, (1s,4s)-N-(4-methoxy-3-methylphenyl)-1-methyl-4-(5-methyl-2-oxo-1,2-dihydroquinazolin-3(4H)-yl)cyclohexanecarboxamide] | < 100
COc1cc(NC(=O)[C@H]2CC[C@@H](N3Cc4c(ccc(OCCN(C)C)c4C)NC3=O)CC2)ccc1C [Example 40, (1s,4s)-4-(6-(2-(Dimethylamino)ethoxy)-5-methyl-2-oxo-1,2-dihydroquinazolin-3(4H)-yl)-N-(3-methoxy-4-methylphenyl)cyclohexanecarboxamide] | 1000 to 10000
CCc1cccc2c1CN([C@H]1CC[C@@H](C(=O)Nc3ccc(C)c(OC)c3)CC1)C(=O)N2 [Example 72, (1s,4s)-4-(5-ethyl-2-oxo-1,2-dihydroquinazolin-3(4H)-yl)-N-(3-methoxy-4-methylphenyl)cyclohexanecarboxamide] | 100 to 1000
COc1cccc(NC(=O)[C@H]2CC[C@@H](N3Cc4c(C)cccc4C3=O)CC2)n1 [Example 233, (1s,4s)-N-(6-Methoxypyridin-2-yl)-4-(4-methyl-1-oxoisoindolin-2-yl)cyclohexanecarboxamide] | 1000 to 10000
COc1ncc(NC(=O)[C@H]2CC[C@@H](N3Cc4c(C)cccc4C3=O)CC2)cc1C [Example 244, (1s,4s)-N-(6-Methoxy-5-methylpyridin-3-yl)-4-(4-methyl-1-oxoisoindolin-2-yl)cyclohexanecarboxamide] | 100 to 1000
COc1cc(NC(=O)[C@H]2CC[C@@H](N3Cc4c(C)cc(C(=O)O)cc4C3=O)CC2)ccc1C [Example 211, 2-((1s,4s)-4-(3-Methoxy-4-methylphenylcarbamoyl)cyclohexyl)-7-methyl-3-oxoisoindoline-5-carboxylic Acid] | 100 to 1000
COc1cc(NC(=O)[C@H]2CC[C@@H](N3Cc4c(cccc4C(F)(F)F)C3=O)CC2)ccc1C [Example 147, (1s,4s)-N-(3-Methoxy-4-methylphenyl)-4-(1-oxo-4-(trifluoromethyl)isoindolin-2-yl)cyclohexanecarboxamide] | 1000 to 10000
COc1cc(NC(=O)[C@@H]2CC[C@H](N3Cc4ccccc4NC3=O)C2)ccc1C [Example 65, (1R,3S)—N-(3-methoxy-4-methylphenyl)-3-(2-oxo-1,2-dihydroquinazolin-3(4H)-yl)cyclopentanecarboxamide] | 1000 to 10000
C=Cc1ccc(NC(=O)[C@H]2CC[C@@H](N3Cc4c(C)cccc4C3=O)CC2)cc1OC [Example 122, (1s,4s)-N-(3-Methoxy-4-vinylphenyl)-4-(4-methyl-1-oxoisoindolin-2-yl)cyclohexane-1-carboxamide] | 100 to 1000
Cc1cccc2c1CN([C@H]1CC[C@@H](C(=O)Nc3nc4ccccc4[nH]3)CC1)C2=O [Example 274, (1s,4s)-N-(1H-benzo[d]imidazol-2-yl)-4-(4-methyl-1-oxoisoindolin-2-yl)cyclohexanecarboxamide] | 100 to 1000
Cc1cccc2c1CN([C@H]1CC[C@@H](C(=O)Nc3ccc4ncccc4c3)CC1)C2=O [Example 228, (1s,4s)-4-(4-Methyl-1-oxoisoindolin-2-yl)-N-(quinolin-6-yl)cyclohexanecarboxamide] | 1000 to 10000
COc1cc(NC(=O)[C@H]2CC[C@@H](N3Cc4c(C)ccc(C)c4NC3=O)CC2)ccc1C [Example 25, (1s,4s)-4-(5,8-Dimethyl-2-oxo-1,2-dihydroquinazolin-3(4H)-yl)-N-(3-methoxy-4-methylphenyl)cyclohexanecarboxamide] | < 100
